For three compounds, inhibition and IC50 results are on record in paper PMC3639963, “A New Class of Small Molecule Inhibitor of BMP Signaling” (PLoS ONE, 2013).

The target in one test is T1, PKCγ (Homo sapiens, UniProt P05129).
T1 construct: purchased Nanosyn (enzymatic panel); SGC in-house recombinant human kinases (DSF panel); Invitrogen (ALK1-6)
The test is described as follows: Nanosyn kinase profiling. Particulars: read-out: Percentage inhibition; for inhibition at 0.1 µM: 0.1 µM inhibitor; for inhibition at 1 µM: 1 µM inhibitor. Format: biochemical. The essentials: (§1)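 Percent inhibition of each kinase was measured with the inhibitor at 0.1 µM and at 1 µM, as part of a 200-kinase human selectivity panel.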

A further test concerns the target T2, FLT1 (Homo sapiens, UniProt P17948).
T2 construct: purchased Nanosyn (enzymatic panel); SGC in-house recombinant human kinases (DSF panel); Invitrogen (ALK1-6)
The test can be described thus: Nanosyn kinase profiling. Format: biochemical. As to conditions: read-out: Percentage inhibition; for inhibition at 0.1 µM: 0.1 µM inhibitor; for inhibition at 1 µM: 1 µM inhibitor. The method in brief:
as §1

The target of the next test is T3, TTK (Homo sapiens, UniProt P33981).
T3 construct: purchased Nanosyn (enzymatic panel); SGC in-house recombinant human kinases (DSF panel); Invitrogen (ALK1-6)
T3 sequence (P33981 1-857): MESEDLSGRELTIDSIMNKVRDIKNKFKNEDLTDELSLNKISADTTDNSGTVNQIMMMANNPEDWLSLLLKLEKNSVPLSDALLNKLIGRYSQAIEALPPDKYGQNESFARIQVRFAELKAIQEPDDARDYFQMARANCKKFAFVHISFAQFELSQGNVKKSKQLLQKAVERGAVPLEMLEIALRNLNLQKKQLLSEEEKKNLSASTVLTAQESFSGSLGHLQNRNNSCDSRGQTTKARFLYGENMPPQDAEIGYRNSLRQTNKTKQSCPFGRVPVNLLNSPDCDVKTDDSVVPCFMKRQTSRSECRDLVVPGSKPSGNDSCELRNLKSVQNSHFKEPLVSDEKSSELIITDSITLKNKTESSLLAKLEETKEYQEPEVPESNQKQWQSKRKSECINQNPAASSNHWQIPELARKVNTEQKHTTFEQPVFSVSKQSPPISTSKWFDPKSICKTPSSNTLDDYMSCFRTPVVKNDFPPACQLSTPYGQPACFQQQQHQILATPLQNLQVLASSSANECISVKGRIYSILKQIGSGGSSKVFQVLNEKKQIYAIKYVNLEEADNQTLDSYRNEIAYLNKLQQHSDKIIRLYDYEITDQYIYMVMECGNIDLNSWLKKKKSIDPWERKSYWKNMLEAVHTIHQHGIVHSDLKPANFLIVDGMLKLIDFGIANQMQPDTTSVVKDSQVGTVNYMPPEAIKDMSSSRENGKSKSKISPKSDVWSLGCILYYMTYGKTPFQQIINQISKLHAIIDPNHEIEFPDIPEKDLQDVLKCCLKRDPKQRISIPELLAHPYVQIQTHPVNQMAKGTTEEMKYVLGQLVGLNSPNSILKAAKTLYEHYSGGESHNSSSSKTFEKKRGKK
The test is described as follows: Nanosyn kinase profiling. Particulars: read-out: Percentage inhibition; for inhibition at 0.1 µM: 0.1 µM inhibitor; for inhibition at 1 µM: 1 µM inhibitor. Format: biochemical. The method in brief: as §1

For the next test, the target named is T4, BRSK2 (Homo sapiens, UniProt Q8IWQ3).
T4 construct: purchased Nanosyn (enzymatic panel); SGC in-house recombinant human kinases (DSF panel); Invitrogen (ALK1-6)
T4 sequence (Q8IWQ3 1-736): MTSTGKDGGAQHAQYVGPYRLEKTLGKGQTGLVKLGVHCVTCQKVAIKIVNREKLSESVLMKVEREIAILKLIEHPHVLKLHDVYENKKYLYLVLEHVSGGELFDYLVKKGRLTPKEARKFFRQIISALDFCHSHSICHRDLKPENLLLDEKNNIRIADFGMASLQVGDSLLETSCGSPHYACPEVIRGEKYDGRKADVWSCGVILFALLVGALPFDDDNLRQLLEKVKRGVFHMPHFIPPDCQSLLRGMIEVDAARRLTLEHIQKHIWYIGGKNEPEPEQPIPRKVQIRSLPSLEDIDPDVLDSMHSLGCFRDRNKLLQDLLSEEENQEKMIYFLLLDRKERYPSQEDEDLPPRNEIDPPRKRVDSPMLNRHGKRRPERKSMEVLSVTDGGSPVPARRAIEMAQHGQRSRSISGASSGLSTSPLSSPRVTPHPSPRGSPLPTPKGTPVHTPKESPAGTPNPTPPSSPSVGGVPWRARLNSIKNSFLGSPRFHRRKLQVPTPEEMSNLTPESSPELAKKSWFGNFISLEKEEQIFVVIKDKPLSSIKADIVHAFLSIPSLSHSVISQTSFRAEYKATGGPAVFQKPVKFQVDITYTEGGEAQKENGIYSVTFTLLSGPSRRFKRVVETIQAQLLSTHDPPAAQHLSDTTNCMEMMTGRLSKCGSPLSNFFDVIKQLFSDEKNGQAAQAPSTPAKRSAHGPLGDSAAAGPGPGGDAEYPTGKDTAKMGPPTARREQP
The test is described as follows: Nanosyn kinase profiling. Format: biochemical. Particulars: read-out: Percentage inhibition; for inhibition at 0.1 µM: 0.1 µM inhibitor; for inhibition at 1 µM: 1 µM inhibitor. The method in brief:
as §1

The target of the next test is T5, LYNA (Homo sapiens, UniProt P07948).
T5 construct: purchased Nanosyn (enzymatic panel); SGC in-house recombinant human kinases (DSF panel); Invitrogen (ALK1-6)
T5 sequence (P07948 whole entry): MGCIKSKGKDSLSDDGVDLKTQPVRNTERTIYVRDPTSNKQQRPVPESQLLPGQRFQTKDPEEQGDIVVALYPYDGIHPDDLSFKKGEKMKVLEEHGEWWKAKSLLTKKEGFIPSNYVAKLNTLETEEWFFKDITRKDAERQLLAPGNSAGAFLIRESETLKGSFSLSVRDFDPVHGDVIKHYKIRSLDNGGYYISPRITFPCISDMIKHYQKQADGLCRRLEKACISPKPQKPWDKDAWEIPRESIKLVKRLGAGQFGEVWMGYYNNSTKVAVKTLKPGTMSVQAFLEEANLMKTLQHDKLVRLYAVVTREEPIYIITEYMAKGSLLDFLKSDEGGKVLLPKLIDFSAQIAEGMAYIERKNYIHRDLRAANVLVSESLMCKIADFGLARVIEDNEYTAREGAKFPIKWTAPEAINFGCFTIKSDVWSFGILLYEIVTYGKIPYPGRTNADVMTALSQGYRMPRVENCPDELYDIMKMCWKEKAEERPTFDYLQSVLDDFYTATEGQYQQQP
The test can be described thus: Nanosyn kinase profiling. The format is biochemical. As to conditions: read-out: Percentage inhibition; for inhibition at 0.1 µM: 0.1 µM inhibitor; for inhibition at 1 µM: 1 µM inhibitor. The method in brief:
as §1

In the next test the target is T6, TIE2 (Homo sapiens, UniProt Q02763).
T6 construct: purchased Nanosyn (enzymatic panel); SGC in-house recombinant human kinases (DSF panel); Invitrogen (ALK1-6)
T6 sequence (Q02763 23-1124): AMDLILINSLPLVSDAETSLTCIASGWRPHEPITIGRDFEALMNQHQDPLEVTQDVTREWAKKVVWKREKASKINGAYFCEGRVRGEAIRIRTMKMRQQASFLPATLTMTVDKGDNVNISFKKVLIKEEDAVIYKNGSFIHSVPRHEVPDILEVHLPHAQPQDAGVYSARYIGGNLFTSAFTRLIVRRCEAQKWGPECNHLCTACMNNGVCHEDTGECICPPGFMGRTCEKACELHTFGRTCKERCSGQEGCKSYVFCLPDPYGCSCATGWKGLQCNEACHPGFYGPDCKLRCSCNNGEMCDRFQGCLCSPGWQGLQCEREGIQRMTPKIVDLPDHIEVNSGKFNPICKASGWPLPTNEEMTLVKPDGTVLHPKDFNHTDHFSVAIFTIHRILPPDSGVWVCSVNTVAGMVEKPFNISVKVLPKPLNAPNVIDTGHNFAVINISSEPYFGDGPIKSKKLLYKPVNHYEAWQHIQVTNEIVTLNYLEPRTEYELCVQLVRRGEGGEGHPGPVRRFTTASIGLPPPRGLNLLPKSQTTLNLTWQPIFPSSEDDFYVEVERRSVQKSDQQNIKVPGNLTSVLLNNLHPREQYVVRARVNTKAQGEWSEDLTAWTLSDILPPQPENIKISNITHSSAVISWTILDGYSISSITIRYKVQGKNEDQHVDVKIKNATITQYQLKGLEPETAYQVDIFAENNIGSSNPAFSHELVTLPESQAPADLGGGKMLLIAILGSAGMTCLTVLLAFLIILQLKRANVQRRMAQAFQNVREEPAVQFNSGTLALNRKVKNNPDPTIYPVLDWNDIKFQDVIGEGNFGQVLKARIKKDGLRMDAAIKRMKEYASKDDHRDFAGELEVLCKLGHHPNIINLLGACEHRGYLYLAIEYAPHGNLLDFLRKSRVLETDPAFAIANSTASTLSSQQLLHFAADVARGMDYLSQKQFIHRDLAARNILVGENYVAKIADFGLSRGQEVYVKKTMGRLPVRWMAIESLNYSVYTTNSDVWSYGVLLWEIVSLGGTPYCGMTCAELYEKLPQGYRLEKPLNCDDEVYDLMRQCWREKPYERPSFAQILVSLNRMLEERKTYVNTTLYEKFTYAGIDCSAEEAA
The test can be described thus: Nanosyn kinase profiling. The format is biochemical. As to conditions: read-out: Percentage inhibition; for inhibition at 0.1 µM: 0.1 µM inhibitor; for inhibition at 1 µM: 1 µM inhibitor. The essentials:
as §1

Another test concerns the target T7, IRAK4 (Homo sapiens, UniProt Q9NWZ3).
T7 construct: purchased Nanosyn (enzymatic panel); SGC in-house recombinant human kinases (DSF panel); Invitrogen (ALK1-6)
T7 sequence (Q9NWZ3 1-460): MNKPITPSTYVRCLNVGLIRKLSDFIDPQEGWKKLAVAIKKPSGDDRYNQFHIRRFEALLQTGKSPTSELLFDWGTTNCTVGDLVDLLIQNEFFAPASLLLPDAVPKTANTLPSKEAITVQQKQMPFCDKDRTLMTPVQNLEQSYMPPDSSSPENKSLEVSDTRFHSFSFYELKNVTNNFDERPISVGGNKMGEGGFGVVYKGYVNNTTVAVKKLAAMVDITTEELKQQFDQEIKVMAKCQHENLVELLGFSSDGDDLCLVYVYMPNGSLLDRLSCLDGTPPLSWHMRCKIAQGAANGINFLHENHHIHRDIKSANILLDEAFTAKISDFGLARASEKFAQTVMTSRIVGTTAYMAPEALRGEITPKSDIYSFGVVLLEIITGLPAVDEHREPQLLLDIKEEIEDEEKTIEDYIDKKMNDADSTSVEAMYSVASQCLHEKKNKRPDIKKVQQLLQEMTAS
The test can be described thus: Nanosyn kinase profiling. As to conditions: read-out: Percentage inhibition; for inhibition at 0.1 µM: 0.1 µM inhibitor; for inhibition at 1 µM: 1 µM inhibitor. The format is biochemical. The essentials:
as §1

The target in another test is T8, MRCKα (Homo sapiens, UniProt Q5VT25).
T8 construct: purchased Nanosyn (enzymatic panel); SGC in-house recombinant human kinases (DSF panel); Invitrogen (ALK1-6)
The test is described as follows: Nanosyn kinase profiling. The format is biochemical. As to conditions: read-out: Percentage inhibition; for inhibition at 0.1 µM: 0.1 µM inhibitor; for inhibition at 1 µM: 1 µM inhibitor. The essentials: as §1

The target of the next test is T9, FLT4 (Homo sapiens, UniProt P35916).
T9 construct: purchased Nanosyn (enzymatic panel); SGC in-house recombinant human kinases (DSF panel); Invitrogen (ALK1-6)
T9 sequence (P35916 25-1363): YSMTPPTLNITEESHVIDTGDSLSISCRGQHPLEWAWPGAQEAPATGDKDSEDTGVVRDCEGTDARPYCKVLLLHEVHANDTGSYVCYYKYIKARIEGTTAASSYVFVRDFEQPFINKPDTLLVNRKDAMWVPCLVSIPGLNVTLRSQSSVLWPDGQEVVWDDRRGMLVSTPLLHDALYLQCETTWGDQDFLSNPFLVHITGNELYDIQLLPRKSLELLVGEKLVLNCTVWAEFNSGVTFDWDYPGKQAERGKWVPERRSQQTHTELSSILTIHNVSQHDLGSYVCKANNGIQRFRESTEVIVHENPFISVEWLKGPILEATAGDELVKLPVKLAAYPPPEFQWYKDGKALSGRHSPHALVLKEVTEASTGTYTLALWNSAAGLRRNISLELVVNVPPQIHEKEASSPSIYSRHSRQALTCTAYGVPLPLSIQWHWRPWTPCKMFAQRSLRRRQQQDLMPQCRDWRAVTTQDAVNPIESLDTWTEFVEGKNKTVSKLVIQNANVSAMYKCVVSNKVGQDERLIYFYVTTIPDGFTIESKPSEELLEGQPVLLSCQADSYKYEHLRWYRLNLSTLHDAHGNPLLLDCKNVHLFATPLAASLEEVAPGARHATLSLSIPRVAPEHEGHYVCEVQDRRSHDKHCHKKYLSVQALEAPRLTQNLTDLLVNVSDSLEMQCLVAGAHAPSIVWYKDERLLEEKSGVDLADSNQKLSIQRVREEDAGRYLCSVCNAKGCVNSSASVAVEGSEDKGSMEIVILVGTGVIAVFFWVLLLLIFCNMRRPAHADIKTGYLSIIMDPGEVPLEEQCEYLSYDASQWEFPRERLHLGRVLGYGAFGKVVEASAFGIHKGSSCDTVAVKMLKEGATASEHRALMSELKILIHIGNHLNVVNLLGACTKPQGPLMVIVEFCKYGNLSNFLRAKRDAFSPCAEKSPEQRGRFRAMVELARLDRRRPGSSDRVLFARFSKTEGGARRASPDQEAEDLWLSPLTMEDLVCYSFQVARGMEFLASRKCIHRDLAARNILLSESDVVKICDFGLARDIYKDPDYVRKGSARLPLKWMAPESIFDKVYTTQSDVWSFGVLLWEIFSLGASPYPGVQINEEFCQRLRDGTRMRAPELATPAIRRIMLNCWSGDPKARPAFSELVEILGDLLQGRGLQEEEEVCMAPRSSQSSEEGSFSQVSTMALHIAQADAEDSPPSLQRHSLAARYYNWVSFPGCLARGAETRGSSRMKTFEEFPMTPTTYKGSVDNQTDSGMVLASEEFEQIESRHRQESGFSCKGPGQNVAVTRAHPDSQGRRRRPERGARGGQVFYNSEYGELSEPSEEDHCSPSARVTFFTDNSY
The test can be described thus: Nanosyn kinase profiling. The format is biochemical. As to conditions: read-out: Percentage inhibition; for inhibition at 0.1 µM: 0.1 µM inhibitor; for inhibition at 1 µM: 1 µM inhibitor. The essentials:
as §1

The test system of a further test is KDR. On the set-up: method as in PMID 20020776. Particulars: read-out: reported KDR IC50; cited from earlier work.

T2 sequence (P17948 27-1338): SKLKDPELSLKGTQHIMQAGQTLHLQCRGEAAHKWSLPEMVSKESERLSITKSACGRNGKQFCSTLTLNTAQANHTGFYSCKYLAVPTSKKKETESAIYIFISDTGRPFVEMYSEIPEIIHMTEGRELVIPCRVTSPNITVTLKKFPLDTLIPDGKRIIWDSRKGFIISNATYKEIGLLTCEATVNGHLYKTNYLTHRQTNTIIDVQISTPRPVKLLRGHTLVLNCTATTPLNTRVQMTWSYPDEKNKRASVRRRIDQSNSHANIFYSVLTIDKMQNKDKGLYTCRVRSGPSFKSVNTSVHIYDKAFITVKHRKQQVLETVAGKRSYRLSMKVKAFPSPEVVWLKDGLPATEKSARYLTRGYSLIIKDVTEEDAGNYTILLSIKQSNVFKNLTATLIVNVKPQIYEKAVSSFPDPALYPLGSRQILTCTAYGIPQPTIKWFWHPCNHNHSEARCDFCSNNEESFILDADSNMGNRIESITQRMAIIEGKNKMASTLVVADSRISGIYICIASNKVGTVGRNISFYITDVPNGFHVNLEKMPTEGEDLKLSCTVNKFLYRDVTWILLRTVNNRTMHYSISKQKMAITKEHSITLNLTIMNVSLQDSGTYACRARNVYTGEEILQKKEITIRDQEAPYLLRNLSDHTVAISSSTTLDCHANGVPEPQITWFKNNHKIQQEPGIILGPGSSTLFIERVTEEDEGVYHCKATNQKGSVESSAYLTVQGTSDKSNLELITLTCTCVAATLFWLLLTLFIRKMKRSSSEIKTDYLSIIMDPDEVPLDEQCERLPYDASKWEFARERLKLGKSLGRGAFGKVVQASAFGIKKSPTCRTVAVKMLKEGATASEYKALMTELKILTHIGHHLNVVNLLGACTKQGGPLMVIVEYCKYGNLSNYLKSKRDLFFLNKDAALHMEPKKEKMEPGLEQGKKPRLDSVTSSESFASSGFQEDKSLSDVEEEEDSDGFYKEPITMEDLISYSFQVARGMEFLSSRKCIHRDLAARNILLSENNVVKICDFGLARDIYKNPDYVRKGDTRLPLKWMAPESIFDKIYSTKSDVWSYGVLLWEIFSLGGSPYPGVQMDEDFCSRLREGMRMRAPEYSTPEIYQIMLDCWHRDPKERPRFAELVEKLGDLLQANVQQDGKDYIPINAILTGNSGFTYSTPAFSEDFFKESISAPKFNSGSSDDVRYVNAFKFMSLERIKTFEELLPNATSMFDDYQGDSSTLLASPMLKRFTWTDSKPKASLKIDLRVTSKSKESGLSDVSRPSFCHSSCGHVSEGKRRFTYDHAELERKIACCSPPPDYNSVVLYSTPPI

As to `COc1cc(-c2cc(-c3cccc(O)c3)cnc2N)cc(OC)c1OC` [K02288, 3-[6-amino-5-(3,4,5-trimethoxy-phenyl)-pyridin-3-yl]-phenol], the inhibition at 0.1 µM was -4% on PKCγ; 0% at FLT1; -4% at TTK; 0.9% on BRSK2; 9.7% on LYNA; 1% on TIE2. Further, the inhibition at 0.1 µM was -1% on IRAK4, 2% at MRCKα and 0.6% at FLT4. For the same compound, the inhibition at 1 µM at PKCγ was -1%; at FLT1, -2%; at TTK it was -1%; on BRSK2, 2.7%; at LYNA, 49%; at TIE2, 3%. For the same compound, the inhibition at 1 µM came out at 0.3% on IRAK4, 6.9% on MRCKα and 1.4% at FLT4.
For `c1cc(-c2cnn3cc(-c4ccc(OCCN5CCCCC5)cc4)cnc23)ccn1` [Dorsomorphin], in the test on KDR, the IC50 is 25 nM.
As for `c1ccc2c(-c3cnn4cc(-c5ccc(N6CCNCC6)cc5)cnc34)ccnc2c1` [LDN-193189], the IC50 with KDR is 215 nM. Besides, the inhibition at 0.1 µM was 2.1% on PKCγ; 0% on FLT1; 4.5% at TTK; 4.4% on BRSK2; 9.1% on LYNA; 2% at TIE2. For the same compound, the inhibition at 0.1 µM on IRAK4 was 0.7%; on MRCKα it was 0.8%; at FLT4, 3.4%. Further, the inhibition at 1 µM at PKCγ worked out at 4.1%; at FLT1, 17%; at TTK, 7.6%; on BRSK2, 22%; on LYNA, 39%; on TIE2 it was 16%. For the same compound, the inhibition at 1 µM at IRAK4 was 1.9%; on MRCKα, 6.8%; on FLT4, 13%.

As usually defined, the inhibition is the change of the read-out against control, counted positive when it falls. As a reminder, the IC50 is the concentration that gives 50% inhibition.
